Results: patent publication US8642566B2, “Therapeutic approaches for treating neuroinflammatory conditions” (Pharnext, priority 2009, dated 2014)

Columns and labels:
[1] = test system: MOG-immunized mice developing chronic progressive EAE; experiment: Chronic phase EAE study, 70 days post EAE induction (Example 1); format: in vivo, C57BL/6 mice; conditions: Manova p<0.005; initial mean weights of all groups equal
Procedure: Prepare the emulsion containing MOG35-55 stock, PBS and CFA. The volume of MOG35-55 stock=[(The volume of the emulsion)×(1.5 g/L)]/[(3×10-3 mol/L)×(2581.6 g/mol)]; the volume of PBS=[(The volume of the emulsion)/2]−(The volume of MOG35-55 stock); The volume of CFA=(The volume of the emulsion)/2. The emulsion is prepared by diluting the MOG35-55 stock with PBS and then mix equal volumes of this diluent and CFA. The final concentration of MOG35-55 is 300 μg per 200 μL emulsion for each mouse. Air bubbles should be avoided and the syringe must be kept at 4° C. until injection. Before use the stability of the emulsion is tested by adding one drop into a beaker of water: if the drop remains as a solid clump and slowly dissipates, then the emulsion is stable and may be injected.
Mice are anesthetized with 2% Pentobarbital sodium (i.p injection, 70˜90 μL/mouse) and kept warm under infrared lamp. Injection of 200 ng Pertussis toxin in 200 μL PBS/mouse is performed (i.v.; tail vein) using a 1-mL syringe with 0.4-mm needle. The previously described emulsion is subcutaneously administered with a 1-mL syringe with 0.4-mm needle.
Mice are kept warm under infrared lamp to perform injection of 200 ng Pertussis toxin in 200 μL PBS via i.v. (tail vein) route, as described for MOG35-55 injection.
A chronic phase study is run for 70 days post EAE induction. […]

[2] = test system: MOG-immunized mice developing chronic progressive EAE; experiment: Acute onset EAE study, 28 days after EAE induction (Example 1); format: in vivo, C57BL/6 mice; conditions: day 28; treatment from 3 weeks before EAE induction; clopidogrel oral, mecamylamine subcutaneous minipump; combination vs placebo p value less than 0.05
[3] = test system: mouse EAE model (MOG35-55 immunization); experiment: Mouse EAE model, acute oral treatment Day 14 to Day 28, global clinical score (Example 2); format: in vivo, C57L/6J female mice; conditions: Day 16 to Day 28 after immunization, 1/60 of usual therapeutic doses (clopidogrel hydrogen sulfate 270 μg/kg/day, mecamylamine hydrochloride 9 μg/kg/day), vs EAE mice without treatment
Procedure: In this experiment, both drugs are equally diluted to ultra-low doses corresponding to 1/60 of their usual therapeutic doses, and importantly, both are administered orally. Protocols for EAE induction and clinical score calculations in this experiment are slightly modified and are described in detail below:
C57L/6J female mice (8 weeks old) are purchased from Janvier (France); after two weeks of habituation, female mice (10 weeks old) develop chronic paralysis after immunization with MOG (Myelin Oligodendrocyte Glycoprotein) peptide. The experimental encephalomyelitis is induced with the Hooke Kit MOG35-55/CFA Emulsion PTX (Pertussis toxin) for EAE Induction (EK-0110, EK-0115; Hooke laboratories). The control kit is CK-0115 (Hooke laboratories).
The day 0, two subcutaneous injections of 0.1 ml each are performed; one on upper back of the mouse and one in lower back. Each injection contains 100 μg of MOG35-55 peptide ([sequence]), 200 μg of inactivated Mycobacterium tuberculosis H37Ra and is emulsified in Complete Freund's adjuvant (CFA) (Hooke laboratories). The emulsion provides antigen needed to expand and differentiate MOG-specific autoimmune T cells. […]
The global score for each animal is determined by the addition of all the above mentioned categories. […]

SMILES	Weight gain, Post Hoc comparison with control group treated with placebo (vehicle) [1]	Histological examination: perivascular lymphocyte infiltrate inflammation (perivascular cuffing) in spinal section [2]	Global clinical score (tail, hind limb, fore limb and bladder scores) [3]
COC(=O)[C@H](c1ccccc1Cl)N1CCc2sccc2C1 [clopidogrel]	different from the control group	different degrees of perivascular inflammation	no positive effects
CNC1(C)C2CCC(C2)C1(C)C (stereo not drawn) [mecamylamine]	different from the control group	different degrees of perivascular inflammation	no positive effects
